Test results as given in the NIST ThermoML archive (doi:10.1016/j.tca.2015.06.017).
Numbers after ± are expanded uncertainties.

Test: xn = mol fraction of the nth substance listed
Settings: 323.15 K, Liquid, Vibrating tube method

## CCCCCl [1-chlorobutane] + CCCCCCC
5000 kPa, x2 = 0.7995
  mass density: 692.58 ± 0.31 kg/m3
5000 kPa, x2 = 0.9011
  mass density: 677.65 ± 0.31 kg/m3
5000 kPa, x2 = 0.9494
  mass density: 670.89 ± 0.31 kg/m3
7000 kPa, x2 = 0.0508
  mass density: 847.24 ± 0.28 kg/m3
7000 kPa, x2 = 0.0994
  mass density: 834.44 ± 0.28 kg/m3
7000 kPa, x2 = 0.2013
  mass density: 809.21 ± 0.29 kg/m3
7000 kPa, x2 = 0.3015
  mass density: 786.24 ± 0.3 kg/m3
7000 kPa, x2 = 0.4008
  mass density: 765.22 ± 0.3 kg/m3
7000 kPa, x2 = 0.5026
  mass density: 745.31 ± 0.31 kg/m3
7000 kPa, x2 = 0.6012
  mass density: 727.32 ± 0.32 kg/m3
7000 kPa, x2 = 0.7003
  mass density: 710.53 ± 0.32 kg/m3
7000 kPa, x2 = 0.7995
  mass density: 694.9 ± 0.33 kg/m3
7000 kPa, x2 = 0.9011
  mass density: 679.93 ± 0.33 kg/m3
7000 kPa, x2 = 0.9494
  mass density: 673.17 ± 0.34 kg/m3
10000 kPa, x2 = 0.0508
  mass density: 850.72 ± 0.3 kg/m3
10000 kPa, x2 = 0.0994
  mass density: 837.9 ± 0.3 kg/m3
10000 kPa, x2 = 0.2013
  mass density: 812.61 ± 0.31 kg/m3
10000 kPa, x2 = 0.3015
  mass density: 789.63 ± 0.32 kg/m3
10000 kPa, x2 = 0.4008
  mass density: 768.57 ± 0.33 kg/m3
10000 kPa, x2 = 0.5026
  mass density: 748.59 ± 0.34 kg/m3
10000 kPa, x2 = 0.6012
  mass density: 730.62 ± 0.35 kg/m3
10000 kPa, x2 = 0.7003
  mass density: 713.78 ± 0.36 kg/m3
10000 kPa, x2 = 0.7995
  mass density: 698.05 ± 0.36 kg/m3
10000 kPa, x2 = 0.9011
  mass density: 683.06 ± 0.37 kg/m3
10000 kPa, x2 = 0.9494
  mass density: 676.28 ± 0.37 kg/m3
20000 kPa, x2 = 0.0508
  mass density: 861.47 ± 0.34 kg/m3
20000 kPa, x2 = 0.0994
  mass density: 848.64 ± 0.35 kg/m3
20000 kPa, x2 = 0.2013
  mass density: 823.24 ± 0.37 kg/m3
20000 kPa, x2 = 0.3015
  mass density: 800.16 ± 0.39 kg/m3
20000 kPa, x2 = 0.4008
  mass density: 779.03 ± 0.41 kg/m3
20000 kPa, x2 = 0.5026
  mass density: 758.92 ± 0.43 kg/m3
20000 kPa, x2 = 0.6012
  mass density: 740.82 ± 0.44 kg/m3
20000 kPa, x2 = 0.7003
  mass density: 723.85 ± 0.46 kg/m3
20000 kPa, x2 = 0.7995
  mass density: 708.08 ± 0.47 kg/m3
20000 kPa, x2 = 0.9011
  mass density: 692.95 ± 0.48 kg/m3
20000 kPa, x2 = 0.9494
  mass density: 686.11 ± 0.49 kg/m3
30000 kPa, x2 = 0.0508
  mass density: 871.14 ± 0.38 kg/m3
30000 kPa, x2 = 0.0994
  mass density: 858.24 ± 0.4 kg/m3
30000 kPa, x2 = 0.2013
  mass density: 832.76 ± 0.43 kg/m3
30000 kPa, x2 = 0.3015
  mass density: 809.58 ± 0.46 kg/m3
30000 kPa, x2 = 0.4008
  mass density: 788.23 ± 0.48 kg/m3
30000 kPa, x2 = 0.5026
  mass density: 767.99 ± 0.51 kg/m3
30000 kPa, x2 = 0.6012
  mass density: 749.78 ± 0.53 kg/m3
30000 kPa, x2 = 0.7003
  mass density: 732.75 ± 0.55 kg/m3
30000 kPa, x2 = 0.7995
  mass density: 716.78 ± 0.57 kg/m3
30000 kPa, x2 = 0.9011
  mass density: 701.56 ± 0.59 kg/m3
30000 kPa, x2 = 0.9494
  mass density: 694.65 ± 0.6 kg/m3
40000 kPa, x2 = 0.0508
  mass density: 880.1 ± 0.42 kg/m3
40000 kPa, x2 = 0.0994
  mass density: 867.14 ± 0.44 kg/m3
40000 kPa, x2 = 0.2013
  mass density: 841.52 ± 0.48 kg/m3
40000 kPa, x2 = 0.3015
  mass density: 818.18 ± 0.52 kg/m3
40000 kPa, x2 = 0.4008
  mass density: 796.79 ± 0.55 kg/m3
40000 kPa, x2 = 0.5026
  mass density: 776.38 ± 0.58 kg/m3
40000 kPa, x2 = 0.6012
  mass density: 758.03 ± 0.61 kg/m3
40000 kPa, x2 = 0.7003
  mass density: 740.88 ± 0.64 kg/m3
40000 kPa, x2 = 0.7995
  mass density: 724.82 ± 0.67 kg/m3
40000 kPa, x2 = 0.9011
  mass density: 709.43 ± 0.69 kg/m3
40000 kPa, x2 = 0.9494
  mass density: 702.46 ± 0.71 kg/m3
50000 kPa, x2 = 0.0508
  mass density: 888.16 ± 0.45 kg/m3
50000 kPa, x2 = 0.0994
  mass density: 875.18 ± 0.48 kg/m3
50000 kPa, x2 = 0.2013
  mass density: 849.47 ± 0.53 kg/m3
50000 kPa, x2 = 0.3015
  mass density: 826.06 ± 0.57 kg/m3
50000 kPa, x2 = 0.4008
  mass density: 804.52 ± 0.61 kg/m3
50000 kPa, x2 = 0.5026
  mass density: 784.01 ± 0.66 kg/m3
50000 kPa, x2 = 0.6012
  mass density: 765.61 ± 0.69 kg/m3
50000 kPa, x2 = 0.7003
  mass density: 748.29 ± 0.73 kg/m3
50000 kPa, x2 = 0.7995
  mass density: 732.14 ± 0.76 kg/m3
50000 kPa, x2 = 0.9011
  mass density: 716.65 ± 0.79 kg/m3
50000 kPa, x2 = 0.9494
  mass density: 709.64 ± 0.81 kg/m3
60000 kPa, x2 = 0.0508
  mass density: 895.85 ± 0.48 kg/m3
60000 kPa, x2 = 0.0994
  mass density: 882.82 ± 0.51 kg/m3
60000 kPa, x2 = 0.2013
  mass density: 856.99 ± 0.57 kg/m3
60000 kPa, x2 = 0.3015
  mass density: 833.5 ± 0.62 kg/m3
60000 kPa, x2 = 0.4008
  mass density: 811.83 ± 0.67 kg/m3
60000 kPa, x2 = 0.5026
  mass density: 791.24 ± 0.72 kg/m3
60000 kPa, x2 = 0.6012
  mass density: 772.72 ± 0.77 kg/m3
60000 kPa, x2 = 0.7003
  mass density: 755.34 ± 0.81 kg/m3
60000 kPa, x2 = 0.7995
  mass density: 739.04 ± 0.85 kg/m3
60000 kPa, x2 = 0.9011
  mass density: 723.43 ± 0.88 kg/m3
60000 kPa, x2 = 0.9494
  mass density: 716.36 ± 0.9 kg/m3
65000 kPa, x2 = 0.0508
  mass density: 899.38 ± 0.49 kg/m3
65000 kPa, x2 = 0.0994
  mass density: 886.34 ± 0.52 kg/m3
65000 kPa, x2 = 0.2013
  mass density: 860.51 ± 0.58 kg/m3
65000 kPa, x2 = 0.3015
  mass density: 836.96 ± 0.64 kg/m3
65000 kPa, x2 = 0.4008
  mass density: 815.25 ± 0.7 kg/m3
65000 kPa, x2 = 0.5026
  mass density: 794.63 ± 0.75 kg/m3
65000 kPa, x2 = 0.6012
  mass density: 776.07 ± 0.8 kg/m3
65000 kPa, x2 = 0.7003
  mass density: 758.61 ± 0.85 kg/m3
65000 kPa, x2 = 0.7995
  mass density: 742.31 ± 0.89 kg/m3
65000 kPa, x2 = 0.9011
  mass density: 726.65 ± 0.93 kg/m3
65000 kPa, x2 = 0.9494
  mass density: 719.56 ± 0.95 kg/m3
